Measured values: patent US10106550B2, “Aza-phenalene-3-ketone derivative, preparation method thereof, and its application as PARP inhibitor” (SUZHOU KANGRUN PHARMACEUTICALS INC., priority 2015, dated 2018)
Several values for one entry are separate records, joined by “and”; a condition that tells them apart may be missing. Identical values can stand only once. Like-named read-outs stand apart in the source and are kept apart here.

Tests used:
PARP1 = PARP1 (Homo sapiens (Human), UniProt P09874); test: PARP1 inhibitory activity, Universal PARP colorimetric assay kit (Trevigen); format: biochemical; settings: for IC50: PARP1
Chain of PARP1 (P09874 whole entry): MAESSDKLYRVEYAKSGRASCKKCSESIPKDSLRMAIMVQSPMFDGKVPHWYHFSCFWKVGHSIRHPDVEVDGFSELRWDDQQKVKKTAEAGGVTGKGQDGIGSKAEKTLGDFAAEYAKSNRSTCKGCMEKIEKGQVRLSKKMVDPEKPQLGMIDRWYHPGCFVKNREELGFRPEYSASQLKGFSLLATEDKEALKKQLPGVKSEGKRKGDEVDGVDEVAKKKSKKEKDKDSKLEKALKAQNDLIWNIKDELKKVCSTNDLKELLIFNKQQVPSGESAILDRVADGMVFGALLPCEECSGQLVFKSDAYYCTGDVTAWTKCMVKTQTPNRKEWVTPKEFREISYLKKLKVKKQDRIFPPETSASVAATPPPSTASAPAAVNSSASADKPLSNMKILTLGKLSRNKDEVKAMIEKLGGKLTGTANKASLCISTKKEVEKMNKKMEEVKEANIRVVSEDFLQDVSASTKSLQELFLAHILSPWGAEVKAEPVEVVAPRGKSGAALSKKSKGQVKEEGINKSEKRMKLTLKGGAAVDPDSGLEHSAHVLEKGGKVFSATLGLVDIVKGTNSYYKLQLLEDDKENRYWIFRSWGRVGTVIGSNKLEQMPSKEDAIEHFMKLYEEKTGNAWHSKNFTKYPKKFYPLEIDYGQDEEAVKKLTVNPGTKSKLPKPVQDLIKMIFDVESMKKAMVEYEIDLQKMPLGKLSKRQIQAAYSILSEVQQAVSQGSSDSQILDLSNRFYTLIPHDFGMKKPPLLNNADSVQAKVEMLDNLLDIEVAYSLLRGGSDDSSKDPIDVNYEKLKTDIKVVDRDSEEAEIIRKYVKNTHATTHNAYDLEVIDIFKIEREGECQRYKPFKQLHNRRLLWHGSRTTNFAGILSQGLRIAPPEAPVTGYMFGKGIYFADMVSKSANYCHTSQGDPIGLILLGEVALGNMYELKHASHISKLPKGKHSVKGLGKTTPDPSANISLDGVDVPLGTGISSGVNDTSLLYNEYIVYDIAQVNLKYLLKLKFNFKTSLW
Source text: 1. Measuring PARP1 Inhibitory Activity
1.1 Materials and Methods
Universal PARP colorimetric assay kit (US Trevigen company)

[1] = Preliminary pharmacokinetics study in SD rats (single intravenous injection or oral gavage, plasma LC-MS/MS); format: in vivo; settings: for AUC(0-inf) / AUC(0-t) / clearance / half-life / Vd / bioavailability / Cmax / Tmax: male, Sprague-Dawley (SD), rat; for Vd: read-out: VdSS; for bioavailability: single oral gavage 10 mg/kg vs intravenous 5 mg/kg, read-out: F (oral bioavailability)
Description: 2. Preliminary Pharmacokinetics Study of Compounds A1, A3, A6 in SD Rats
Healthy SPF SD male rats: 18, weighing 180-220 g, purchased from Shanghai Si Lai Ke Lab Animal Co. Ltd.; animal license no. SOCK (Shanghai) 2013-00016.
Rats were divided into intravenous injection group and oral gavage administration group, and fast for 12-14 hours before experiments. Test compounds' concentration in venous blood was measured. Venous blood was collected by orbital, EDTAK2 anticoagulation. The blood samples were placed on ice, and centrifuged within 30 minutes to separate plasma (centrifugal condition: 5000 rpm/min, 10 min, room temperature). The samples were stored at −80° C. prior to analysis.
Rats in intravenous injection group received a single injection 5 mL/kg of the test compounds. Rats in oral gavage administration group received a single dose 10 mL/kg of the test compounds. Venous blood sample collection times were: before the injection of the test compound (0 hr); after the injection of the test compound: 15 min, 30 min, 1 h, 2 h, 4 h, 6 h, 8 h and 24 h; before the oral gavage administration of the test compound (0 hr) and after the oral gavage administration of the test compounds, 30 min, 1 h, 2 h, 4 h, 6 h, 8 h and 24 h.
Liquid phase conditions: column: Agilent Eclipse plus-C18 (4.6×150 mm, 5.0 μm), mobile phase: 0.1% aqueous formic acid (A)/0.1% formic acid in acetonitrile (B); gradient elution, flow rate: 1.00 mL/min (split v:v=1:1); injection volume: 10 μL.
MS conditions: using electrospray ionization (ESI) and the positive ion mode under multiple reaction monitoring (MRM).
Compounds A1, A3, and A6 were weighed precisely and added to MDSO to prepare 1.00 mg/mL stock solutions. After the stock solutions were diluted to prepare 10000, 5000, 2000, 1000, 500, 100, 50.0, 20.0 ng/mL standard working solutions. Quality control work concentrations include low (30 ng/mL), medium (500 ng/mL), and high (8000 ng/mL).
10 μL plasma sample was added 100 μL verapamil internal standard solution. The mixture was vortexed for 60 seconds and then centrifuged (12000 rpm, 3 min). 70 μL supernatant was transferred to a 96-well plate with equal volume of water in each well. LC-MS/MS analysis was then conducted, and the injection volume was 10 μL.
Data were processed by using WinNonlin 6.3 pharmacokinetic calculation software and non-compartment pharmacokinetic model to obtain major pharmacokinetic parameters.

[2] = plasma, single intravenous injection, 5 mg/kg
[3] = plasma, single oral gavage, 10 mg/kg
[4] = single intravenous injection, 5 mg/kg
[5] = in vivo, single intravenous injection, 5 mg/kg
[6] = in vivo, single oral gavage, 10 mg/kg

Compound	IC50 (PARP1) [nM]	exposure levels (AUC0-4) [1]	Tmax [1, 3] [min]	AUMC0-inf [1, 4] [h · h · ng · mL^−1]	AUMC0-t [1, 4] [h · h · ng · mL^−1]	Kel [1, 4] [h⁻¹]	MRTIV [1, 4] [min]	AUMC0-inf ([1]; single oral gavage, 10 mg/kg) [h · h · ng · mL^−1]	AUMC0-t ([1]; single oral gavage, 10 mg/kg) [h · h · ng · mL^−1]	CL ([1]; single oral gavage, 10 mg/kg) [mL·min/kg]	Kel ([1]; single oral gavage, 10 mg/kg) [h⁻¹]	MRTPO ([1]; single oral gavage, 10 mg/kg) [min]	Vz ([1]; single oral gavage, 10 mg/kg) [L/kg]	also measured
O=c1[nH]nc2c3c(cccc13)N=C1CN(Cc3ccccc3)CCN12 [Compound A5]	58.7	–	–	–	–	–	–	–	–	–	–	–	–	–
NC(=O)c1cccc(N)c1 [Compound 3-AB, reference compound]	–	–	–	–	–	–	–	–	–	–	–	–	–	inhibition at 1000 µM (PARP1; PARP1, 1 mM, read-out: inhibition rate): 100%
NC(=O)c1ccc(I)c([N+](=O)[O-])c1 [BSI-201, reference compound]	–	–	–	–	–	–	–	–	–	–	–	–	–	inhibition at 1 µM (PARP1; PARP1, 1 μM, read-out: inhibition rate): 22.4%
CCN1CCN2C(=Nc3cccc4c(=O)[nH]nc2c34)C1 [Compound A2]	65.7	–	–	–	–	–	–	–	–	–	–	–	–	–
CN1CCN2C(=Nc3cccc4c(=O)[nH]nc2c34)C1 [Compound A3]	130	higher	15	1175 ± 105	1145 ± 120	1.02 ± 0.034	30.4 ± 2.4	2658 ± 308	2566 ± 474	71.3 ± 7.6	0.818 ± 0.036	64.8 ± 5.64	5.22 ± 0.81	AUC(0-inf) [1, 2]: 2290 ± 321 ng·h/mL; AUC(0-t) [1, 2]: 2290 ± 323 ng·h/mL; clearance [1, 2]: 38.4 ± 2.5 mL/min/kg; half-life [1, 2]: 43.3 ± 4.92 min; Vd [1, 2]: 1.15 ± 0.07 L/kg; bioavailability ([1]; plasma): 50.5 ± 6.8%; AUC(0-inf) [1, 3]: 2310 ± 309 ng·h/mL; AUC(0-t) [1, 3]: 2340 ± 334 ng·h/mL; Cmax [1, 3]: 1860 ± 251 ng/mL; half-life [1, 3]: 50.9 ± 3.3 min
C=C(C)CCN1CCN2C(=Nc3cccc4c(=O)[nH]nc2c34)C1 [Compound A6]	39.1	higher	30	232 ± 17	196 ± 27	3.64 ± 0.22	13.3 ± 1.56	284 ± 29	269 ± 33	626 ± 93	1.77 ± 0.28	70.2 ± 5.4	31.2 ± 4.8	AUC(0-inf) [1, 2]: 1040 ± 118 ng·h/mL; AUC(0-t) [1, 2]: 1000 ± 92 ng·h/mL; clearance [1, 2]: 83.1 ± 13.3 mL/min/kg; half-life [1, 2]: 11.5 ± 0.72 min; Vd [1, 2]: 1.1 ± 0.15 L/kg; bioavailability ([1]; plasma): 13 ± 2.1%; AUC(0-inf) [1, 3]: 271 ± 43 ng·h/mL; AUC(0-t) [1, 3]: 264 ± 36 ng·h/mL; Cmax [1, 3]: 259 ± 28 ng/mL; half-life [1, 3]: 30.8 ± 2.46 min
CC(C)N1CCN2C(=Nc3cccc4c(=O)[nH]nc2c34)C1 [Compound A4]	111	–	–	–	–	–	–	–	–	–	–	–	–	–
Cl.O=c1[nH]nc2c3c(cccc13)N=C1CNCCN12 [Compound A1]	90.5	higher	30	4190 ± 575	3790 ± 547	0.463 ± 0.063	57.2 ± 6.24	9200 ± 336	8548 ± 240	29.7 ± 3.2	0.523 ± 0.046	93 ± 12	3.62 ± 0.37	AUC(0-inf) [1, 5]: 4280 ± 317 ng·h/mL; AUC(0-t) [1, 5]: 4250 ± 304 ng·h/mL; clearance [1, 5]: 19.5 ± 1.4 mL/min/kg; half-life [1, 5]: 91.8 ± 9.6 min; Vd [1, 5]: 1.11 ± 0.11 L/kg; bioavailability ([1]; in vivo): 67.5% and 67.1%; AUC(0-inf) [1, 6]: 5740 ± 841 ng·h/mL; AUC(0-t) [1, 6]: 5710 ± 802 ng·h/mL; Cmax [1, 6]: 3120 ± 173 ng/mL; half-life [1, 6]: 80.4 ± 7.2 min
